Consider one compound from patent US20040043980A1, “Stable compositions of oxapenem-3-carboxylic acids by co-lyophilisation with pharmaceutical carriers” (priority 2000, published 2004).

Conditions in all cases: 42 days
A short description of series [1]: Shelf stability: content determined by UV spectroscopy in water at 262 nm. The series is classed as physicochemical. Further details: unit not given here. On the procedure:
(§1) Several samples in glass ampoules were kept without and over drying agents for 42 days in the dark at room temperature. The content of (5R,6R,1′R)-3-(4-amino-1,1-dimethylbutyl)-6-(1′-hydroxyethyl)-7-oxo-4-1-azabicyclo[3.2.0]hept-2-ene-2-carboxylic acid was determined by UV spectroscopy in water at λmax=262 nm (ε=5000) and by plate bioassay. The appearance of the lyophilized powder and the solubility behaviour in water were also recorded.

The nature of series [2]: Shelf stability: appearance of the lyophilized powder. The series is classed as physicochemical. On the procedure: as §1
In a further series the test system is Escherichia coli. The series is described as follows: Shelf stability: content by plate bioassay. It is filed as cell-based. Further details: unit not given here. On the procedure: […] The content of (5R,6R,1′R)-3-(4-amino-1,1-dimethylbutyl)-6-(1′-hydroxyethyl)-7-oxo-4-1-azabicyclo[3.2.0]hept-2-ene-2-carboxylic acid was determined by UV spectroscopy in water at λmax=262 nm (ε=5000) and by plate bioassay. The appearance of the lyophilized powder and the solubility behaviour in water were also recorded.
The plate bioassays were carried out in sterile polystyrene dishes of 8.5 cm diameter with 10 ml of sterile Difco Nutrient Agar using Escherichia coli (inocculum ca. 10 000 cells). The inhibition diameters were compared with those obtained with 30, 25, 20, 15, 10 and 5 μg of pure title compound on a separate dish and the amount of active material calculated.

[3] abbreviates: R.T., vacuum, drying agent P2O5.

Regarding `C[C@@H](O)[C@H]1C(=O)N2C(C(=O)O)=C(C(C)(C)CCCN)O[C@H]12` [neat, (5R,6R,1′R)-3-(4-amino-1,1-dimethylbutyl)-6-(1′-hydroxyethyl)-7-oxo-4-oxa-1-azabicyclo[3.2.0]hept-2-ene-2-carboxylic acid], the “content by UV method” value was determined as 82 in series [1] (R.T., drying agent SiO2); 67 in series [1] (R.T., drying agent none); 76 in series [1] (setting [3]); 100 in series [1] (−80° C., drying agent none). For the same compound, the appearance result was “yellow” in series [2] (R.T., drying agent SiO2); “yellow” in series [2] (R.T., drying agent none); “yellow” in series [2] (setting [3]); “white” in series [2] (−80° C., drying agent none). In addition, the content by bioassay came to 66 with Escherichia coli (R.T., drying agent SiO2); 40 in the series with Escherichia coli (R.T., drying agent none); 83 in the series on Escherichia coli (setting [3]); 100 in the series on Escherichia coli (−80° C., drying agent none).
